The term pIC50 denotes the negative decadic logarithm of the IC50, by convention in mol/L.

pIC50: −log10 of the molar value. Active and inactive are the calls of the source. The rule behind the calls is not given here.

These results are taken from ChEMBL document CHEMBL3414502, “Identification of protein kinase CK2 inhibitors using solvent dipole ordering virtual screening” (Eur J Med Chem, 2015).

Test [1] addresses Casein kinase II (Homo sapiens, UniProt P19784+P67870+P68400). Briefly: Inhibition of CK2 kinase (unknown origin) using RRRDDDSDDD as substrate after 10 mins by topcount analysis in presence of [gamma-32P]ATP and 90 uM ATP. It counts as protein-complex assay.
For test [2], the target named is Casein kinase II (Homo sapiens) (UniProt P67870+P68400+P19784). Briefly: Competitive inhibition of CK2 kinase (unknown origin) by Lineweaver-Burk plot analysis in presence of ATP. The class given is protein-complex assay.

In the case of `CCOc1ccc(C2=N/C(=C/c3ccc(C(=O)O)cc3)C(=O)O2)cc1`, the negative-log IC50 (pIC50) in test [1] is 4.37.
Same read-out and setting: the same measure for `Cc1cc(Br)c(N2C(=O)NC(=O)C(/C=N/c3ccc(C(=O)O)c(O)c3)C2=O)cc1C` (stereo unspecified): 4.54.
`O=c1cc(-c2ccc(O)cc2)oc2c1ccc1ccccc12`: in test [2], the “competitive inhibition (qualitative)” value was “Active”. In addition, the pIC50 in test [1] was 5.01.
As for `COc1cc(/C=C2/C(=O)NN(c3ccc(C)c(Cl)c3)C2=O)ccc1OCC(=O)O`, the pIC50 in test [1] was 4.54.
On the same count and under the same terms, the result for `O=C(O)COc1ccc2c(c1)O/C(=C\c1ccco1)C2=O` reads 4.96.
In the case of `Cc1nn(C)cc1-c1cc(-c2nnc(Nc3ccn(Cc4ccccc4Cl)n3)s2)no1`, the “competitive inhibition (qualitative)” value in test [2] was “Active”. In test [1], the pIC50 is 5.43.
Take `CC(C)(C)c1ccc(C2=N/C(=C/c3ccc(C(=O)O)cc3)C(=O)O2)cc1`: in test [1], the pIC50 is 4.88.
Still for that read-out and setting: the result for `O=c1[nH]nc(-c2ccco2)c2cn(-c3cccc([N+](=O)[O-])c3)nc12` reads 4.33; that for `Nc1nnc(-c2ccc(C(=O)O)cc2)s1`, 4.56.
As for `O=C1OC(c2ccc(-c3ccccc3)cc2)=N/C1=C/c1ccc(C(=O)O)cc1`, in test [1], the pIC50 is 4.86.
On the same count and under the same terms, the same measure for `COc1ccc(-c2nc(C(N)=O)c3[nH]c(=O)n(-c4ccc(OC)c(OC)c4)c3n2)cc1`: 4.30; for `NC(=O)c1nc(-c2ccncc2)nc2c1[nH]c(=O)n2-c1ccc2c(c1)OCO2`: 4.71.
Regarding `COc1ccc(-c2nc3c(sc4nc(C(F)F)cc(C)c43)c(=O)[nH]2)cc1Cn1cc([N+](=O)[O-])cn1`, the “competitive inhibition (qualitative)” value in test [2] was “Active”. Also, the pIC50 in test [1] is 5.11.
The like results for `COc1ccc(/C=C2\Oc3cc(OCC(=O)O)ccc3C2=O)cc1OC` were, in that order, “Active” and 5.22.
Regarding `O=c1oc2ccc([N+](=O)[O-])cc2cc1-c1csc(Nc2ccccc2)n1`, the “competitive inhibition (qualitative)” value in test [2] is “Active”. Further, the pIC50 in test [1] was 5.07.
`O=C(COC(=O)c1cc(Br)c(Br)s1)Nc1ccc2[nH]c(=O)[nH]c2c1`: the negative logarithm of the IC50 (pIC50) in test [1] was 4.82.
In the case of `COc1cccc(NC(=O)Nc2nnc(-c3ccc([N+](=O)[O-])cc3)s2)c1`, the “competitive inhibition (qualitative)” value in test [2] was “Active”. For the same compound, the pIC50 in test [1] is 5.12.
As to `Nc1nc2ccc(NC(=S)NC(=O)c3cccs3)cc2s1`, the negative-log IC50 (pIC50) in test [1] was 4.60.
For `O=C1OC(c2sc3ccccc3c2Cl)=N/C1=C/c1ccc(C(=O)O)cc1`, the negative-log IC50 (pIC50) in test [1] was 5.22.
With `O=c1[nH]n2c(=O)c3c([nH]c2c1/N=N/c1ccccc1Cl)CCC3`, the “competitive inhibition (qualitative)” value in test [2] was “Active”. Also, the pIC50 in test [1] was 5.42.
As to `CCC(=O)Nc1nnc(-c2ccc([N+](=O)[O-])cc2)s1`, the pIC50 in test [1] was 4.55.
On the same count and under the same terms, the same measure for `O=C(COC(=O)c1c[nH]c2ccccc12)Nc1ccc2[nH]c(=O)[nH]c2c1`: 4.55.
The same measure, in the same setting: the result for `CCOc1cc(-c2nc3c(cnn3-c3ccccc3)c(=O)[nH]2)ccc1O` reads 4.40.
Same read-out and setting: the result for `O=c1[nH]c(-c2ccc(OCc3ccccc3)cc2)nc2c1cnn2-c1ccccc1` reads 4.95.
